The source of these data is patent publication EP4732907A1, “STYRYL BENZOTHIAZOLIUM SALTS AND ITS USES AGAINST PARASITIC INFECTIONS” (priority 2024, dated 2026).

Common to all, as to format: cell-based
Experiment [1] relates to L. major promastigotes (LucRE9). As to the kind of experiment: In vitro antileishmanial activity against Leishmania major promastigotes (MTT-based assay, 72 h). The conditions noted are these: Table 3; for IC50: Leishmania major, promastigotes, 72 h, MTT. Here is the method: Parasite culture: L. major promastigotes (LucRE9) were cultured at 28 °C in 5% CO2 in modified RPMI-1640 medium (Invitrogen, Carlsbad, CA) with 10% hiFBS.
The anti-leishmanial activity of the compounds was determined using MTT-based assay (Sigma-Aldrich) (Antimicrob Agents Chemother 2011, 55, 3838-3844). The stock solutions of the compounds were prepared in DMSO with a final DMSO percentage in each well maintained below 1%. 4 × 10^6 parasites per mL were incubated at 28 °C in 96-well plates (50 µL/well) either alone or in the presence of increasing concentration of compounds DMSO for 72 h. After the incubation period, 10 µL of MTT (5 mg/ml) was added to each well and parasites were incubated for 4 h at 28°C. Subsequently, cell lysis was performed using 50 µL/well of 20% SDS. The plate was then incubated at 37 °C for an additional hour and then absorbance was measured at a wavelength of 540 using an Infinite F200 plate reader (TECAN Austria, GmbH). The IC50 was calculated as described above. Data were presented as the average of at least three independent measurements, each conducted in triplicate conditions.

A further experiment deals with MRC-5 cell line. Nature of the experiment: Cytotoxicity assay in MRC-5 cell line (alamarBlue assay, 72 h). Conditions: Homo sapiens, MRC5, Table 3. A general note: Alamar Blue is a resazurin reagent that responds to reducing activity.
Experiment [2] deals with Bloodstream forms (BSF) of T. brucei brucei 'single marker' S427 (S16). Nature of the experiment: In vitro antitrypanosomal activity against Trypanosoma brucei (alamarBlue assay, 72 h). Conditions: Table 3; IC50 MRC-5 / IC50 T.brucei. An excerpt: Data were presented as the average of at least three independent measurements, each conducted in triplicate conditions.
Experiment [3] relates to Leishmania major amastigotes. Nature of the experiment: In vitro antileishmanial activity against Leishmania major amastigotes in THP1 cells (luciferase assay, 72 h). The conditions noted are these: Table 4. Here is the method: The antiparasitic activity of the compounds against the intracellular form of Leishmania major was evaluated using the Luciferase Assay System kit from Promega. […] Post-differentiation, the cells were washed and fresh medium was added (100 µL/well) before being reincubated. […] The plates were then incubated at 35°C in 5% CO2. After 24 hours, the wells were washed three times with PBS, and fresh medium with increasing concentrations of compounds was added (100 µL/well). After another 72 hours of incubation, the cells were then treated with 25 µL of lysis buffer and stored at -80°C. Following 24 hours, 25 µL of luciferase enzyme substrate was added to each well, and the luciferase activity of the amastigotes was determined using a TECAN Infinite F200 microplate reader. […] Data represent the average of three independent experiments, each conducted in triplicate.

Experiment [4] has as its system THP1 cells (human monocytic cell line). Nature of the experiment: Cytotoxicity assay on PMA-differentiated THP1 (alamarBlue assay, 72 h). Conditions: THP-1, Table 4, PMA-differentiated THP1, 72 h. Here is the method:
Post-differentiation, the cells were washed and fresh medium was added (100 µL/well) before being reincubated. […] Data represent the average of three independent experiments, each conducted in triplicate.

Description for MRC-5 cell line: Cell culture: Cell culture media were purchased from Gibco (Grand Island, NY, USA). Fetal bovine serum (FBS) was a product of Harlan-Seralab (Belton, U.K.). Supplements and other chemicals not listed in this section were obtained from Sigma Chemicals Co. (St. Louis, Mo., USA). Plastics for cell culture were supplied by Thermo Scientific™ BioLite. All tested compounds were dissolved in DMSO at a concentration of 10 mg/mL and stored at -20°C until use. Cell lines were maintained in Dulbecco's modified Eagle's medium (DMEM) containing glucose (1 g/L), glutamine (2 mM), penicillin (50 IU/mL), streptomycin (50 µg/mL) and amphotericin (1.25 µg/mL), supplemented with 10% FBS.
The stock solutions of the compounds were prepared in DMSO, with the final DMSO concentration in each well maintained below 1%. […] Subsequently, the compounds were added at various concentrations ranging from 0 to 100 µM, and the plates were incubated for 72 h. After the incubation period, 20 µL of resazurin solution (110 ng/ml) were added to each well and cells were incubated for 4 h. Then, cells were lysed with 50 µL/well of 3% SDS. The plate was incubated at 37 °C for an additional hour and subsequently, the fluorescence intensity was measure at the Infinite F200 plate reader (TECAN Austria, GmbH), exciting at 550 nm and recording the emission at 590 nm. […] Data are presented as the average of at least three independent measurements, each conducted in triplicate conditions.

Take `C[n+]1c(/C=C/c2cc3c4c(c2)CCCN4CCC3)sc2ccccc21` [Compound 3]: the half-maximal inhibitory concentration (IC50) (commonly the concentration needed to halve the response being measured) in experiment [1] was 0.0065 ± 0.0029 µM; with MRC-5 cell line it was 0.08 ± 0.03 µM.
The matching figures for `CN(C)c1ccc(/C=C/c2sc3ccccc3[n+]2C)cc1` [Compound 1, (E)-2-(4-(Dimethylamino)styryl)-3-methylbenzo[d]thiazol-3-ium iodide]: 0.02 ± 0.013 µM and 1.52 ± 0.37 µM.
With `C[n+]1c(/C=C/c2ccc(N(c3ccccc3)c3ccccc3)cc2)sc2ccccc21` [Compound 2], the “Selectivity Index (SI) T.brucei” value in experiment [2] is reported as 15.1. Also, the 50% inhibitory concentration (IC50) was determined as 0.02 ± 0.011 µM in experiment [1]; 5.13 ± 0.76 µM in the experiment on MRC-5 cell line; 0.0281 ± 0.00473 µM in experiment [3] (Leishmania major, THP-1, intracellular amastigotes in THP1 macrophages, 72 h, read-out: IC50 (uM) L. major); 0.93 ± 0.02 µM in experiment [4]. For the same molecule, the “Selectivity Index (SI) L.major” value in experiment [1] (IC50 MRC-5 / IC50 L.major promastigotes) is listed as 252.0. For the same molecule, the “Selectivity Index (SI) MRC-5” value in experiment [3] (IC50 MRC-5 / IC50 L.major amastigotes) amounted to 182. Also, the “Selectivity Index (SI) THP-1” value in experiment [3] (IC50 THP-1 / IC50 L. major amastigotes) is on record as 33.
